According to ChEMBL document CHEMBL2321762, “Design, synthesis, and SAR of N-((1-(4-(propylsulfonyl)piperazin-1-yl)cycloalkyl)methyl)benzamide inhibitors of glycine transporter-1” (Bioorg Med Chem Lett, 2013):
Values belong to the compound of their own block, whether it stands above or below them. The source made the active and inactive calls. The calls are words filed in the database; no cut-off is given here.

Assays:
[1] = target: T1, Sodium- and chloride-dependent glycine transporter 1 (Homo sapiens, UniProt P48067); assay: Inhibition of GlyT1a in human JAR cells assessed as inhibition of [3H]glycine uptake by scintillation proximity assay; format: cell-based
T1 sequence (P48067 whole entry): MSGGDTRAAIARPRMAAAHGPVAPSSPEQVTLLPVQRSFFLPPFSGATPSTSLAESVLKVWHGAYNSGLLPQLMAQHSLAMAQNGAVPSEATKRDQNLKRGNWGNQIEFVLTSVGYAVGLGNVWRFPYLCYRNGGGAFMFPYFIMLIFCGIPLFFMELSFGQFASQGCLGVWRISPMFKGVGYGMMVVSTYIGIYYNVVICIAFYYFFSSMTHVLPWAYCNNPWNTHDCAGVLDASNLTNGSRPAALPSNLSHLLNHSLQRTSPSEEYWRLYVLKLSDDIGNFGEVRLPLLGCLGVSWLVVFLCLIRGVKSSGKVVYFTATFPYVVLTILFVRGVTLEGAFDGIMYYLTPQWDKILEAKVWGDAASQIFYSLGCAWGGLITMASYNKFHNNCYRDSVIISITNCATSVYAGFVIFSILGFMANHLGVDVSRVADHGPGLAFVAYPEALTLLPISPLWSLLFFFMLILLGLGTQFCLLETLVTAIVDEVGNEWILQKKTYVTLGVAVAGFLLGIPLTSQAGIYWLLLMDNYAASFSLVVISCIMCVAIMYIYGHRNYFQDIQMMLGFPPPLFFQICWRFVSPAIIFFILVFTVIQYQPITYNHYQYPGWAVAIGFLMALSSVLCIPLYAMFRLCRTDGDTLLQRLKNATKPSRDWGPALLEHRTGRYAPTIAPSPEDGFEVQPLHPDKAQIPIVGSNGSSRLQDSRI

[2] = Metabolic stability in human liver microsomes assessed as compound remaining at 10 uM after 60 mins; format: ADME, Microsome; settings: read-out: Stability
[3] = target: T2, Sodium- and chloride-dependent glycine transporter 2 (Homo sapiens, UniProt Q9Y345); assay: Inhibition of human GlyT2 expressed in HEK293 cells assessed as inhibition of [3H]glycine uptake by scintillation proximity assay; format: cell-based
T2 sequence (Q9Y345 whole entry): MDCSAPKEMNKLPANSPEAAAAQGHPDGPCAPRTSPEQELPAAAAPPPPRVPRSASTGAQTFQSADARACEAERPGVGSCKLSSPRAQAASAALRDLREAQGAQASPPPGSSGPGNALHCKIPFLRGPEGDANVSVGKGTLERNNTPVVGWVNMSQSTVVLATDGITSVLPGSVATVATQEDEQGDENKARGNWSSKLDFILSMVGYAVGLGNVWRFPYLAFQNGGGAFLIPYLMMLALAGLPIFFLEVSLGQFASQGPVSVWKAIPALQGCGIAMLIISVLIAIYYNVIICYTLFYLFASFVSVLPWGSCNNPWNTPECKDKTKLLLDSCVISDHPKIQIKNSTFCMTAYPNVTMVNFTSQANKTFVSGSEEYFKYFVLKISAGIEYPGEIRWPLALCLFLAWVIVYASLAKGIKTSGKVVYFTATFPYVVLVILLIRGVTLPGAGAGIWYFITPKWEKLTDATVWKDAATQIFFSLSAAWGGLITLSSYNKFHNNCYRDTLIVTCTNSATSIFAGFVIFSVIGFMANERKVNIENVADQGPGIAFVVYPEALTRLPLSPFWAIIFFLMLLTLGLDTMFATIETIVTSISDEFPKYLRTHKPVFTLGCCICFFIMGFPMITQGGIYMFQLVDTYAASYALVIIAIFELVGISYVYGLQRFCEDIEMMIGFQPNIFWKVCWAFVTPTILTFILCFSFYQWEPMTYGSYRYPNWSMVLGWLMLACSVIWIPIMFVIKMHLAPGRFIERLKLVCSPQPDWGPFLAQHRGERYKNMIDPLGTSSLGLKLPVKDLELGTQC

[4] = Intrinsic clearance in human liver microsomes at 1 uM; format: ADME, Microsome; settings: read-out: CLH
[5] = Tmax in rat at 2 mg/kg, iv and 10 mg/kg, po; format: ADME, organism-based; settings: in vivo
[6] = tested on: Salmonella typhimurium; assay: Mutagenicity against Salmonella typhimurium TA98 by mini-AMES test in absence of rat S9 fraction; format: toxicity, organism-based; settings: salmonella enterica subsp. enterica serovar typhimurium
[7] = Terminal half life in rat at 2 mg/kg, iv and 10 mg/kg, po; format: ADME, organism-based; settings: in vivo, read-out: beta t1/2 (converted)
[8] = Oral bioavailability in rat at 10 mg/kg; format: ADME, organism-based; settings: in vivo
[9] = tested on: Salmonella typhimurium; assay: Mutagenicity against Salmonella typhimurium TA100 by mini-AMES test in absence of rat S9 fraction; format: toxicity, organism-based; settings: salmonella enterica subsp. enterica serovar typhimurium
[10] = AUC (0 to infinity) in rat at 2 mg/kg, iv and 10 mg/kg, po; format: ADME, organism-based; settings: plasma
[11] = tested on: Rattus norvegicus; assay: Antischizophrenic activity in po dosed rat assessed as increased glycine level in CSF after 30 mins relative to control; format: functional, organism-based
[12] = target: Cytochrome P450 2C19 (Homo sapiens, UniProt P33261); assay: Inhibition of CYP2C19 (unknown origin); format: ADME
Cytochrome P450 2C19, sequence (P33261 whole entry): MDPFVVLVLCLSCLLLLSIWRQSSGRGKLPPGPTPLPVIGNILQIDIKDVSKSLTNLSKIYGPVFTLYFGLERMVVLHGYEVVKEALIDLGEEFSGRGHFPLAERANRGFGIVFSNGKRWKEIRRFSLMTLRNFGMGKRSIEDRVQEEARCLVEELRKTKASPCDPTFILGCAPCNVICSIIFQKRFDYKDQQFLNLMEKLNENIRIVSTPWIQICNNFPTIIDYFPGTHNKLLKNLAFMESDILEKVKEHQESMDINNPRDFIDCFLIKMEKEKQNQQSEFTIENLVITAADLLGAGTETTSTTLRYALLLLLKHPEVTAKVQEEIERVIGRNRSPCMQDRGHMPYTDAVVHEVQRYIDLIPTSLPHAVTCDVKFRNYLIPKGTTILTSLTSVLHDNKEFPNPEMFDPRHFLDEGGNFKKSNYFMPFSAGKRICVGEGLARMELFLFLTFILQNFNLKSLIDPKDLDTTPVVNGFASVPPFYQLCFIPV

[13] = tested on: Rattus norvegicus; assay: Antischizophrenic activity in rat assessed as increased glycine level in CSF at 30 to 75 mg/kg, po after 30 mins relative to control; format: functional, organism-based
[14] = Drug uptake in po dosed rat CSF after 30 mins; format: ADME, organism-based, Cerebrospinal fluid; settings: in vivo, 0.5 h
[15] = Plasma protein binding in human; format: ADME, cell-free; settings: read-out: PPB (converted)
[16] = target: Cytochrome P450 3A4 (Homo sapiens, UniProt P08684); assay: Inhibition of CYP3A4 (unknown origin); format: ADME
Cytochrome P450 3A4, sequence (P08684 whole entry): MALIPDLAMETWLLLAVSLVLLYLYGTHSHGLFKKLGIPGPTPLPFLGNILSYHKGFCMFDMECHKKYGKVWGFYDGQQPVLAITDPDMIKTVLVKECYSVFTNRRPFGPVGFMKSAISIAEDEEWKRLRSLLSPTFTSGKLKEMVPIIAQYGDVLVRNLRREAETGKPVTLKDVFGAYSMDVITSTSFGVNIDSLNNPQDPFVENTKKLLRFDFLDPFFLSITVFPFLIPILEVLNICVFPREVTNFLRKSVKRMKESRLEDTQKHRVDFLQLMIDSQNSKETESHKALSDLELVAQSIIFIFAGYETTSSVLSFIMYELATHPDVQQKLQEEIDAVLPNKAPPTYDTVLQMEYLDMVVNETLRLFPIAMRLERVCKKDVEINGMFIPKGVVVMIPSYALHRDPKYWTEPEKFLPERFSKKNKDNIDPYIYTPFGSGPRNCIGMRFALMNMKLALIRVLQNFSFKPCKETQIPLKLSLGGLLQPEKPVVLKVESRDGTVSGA

[17] = tested on: Salmonella typhimurium; assay: Mutagenicity against Salmonella typhimurium TA100 by mini-AMES test in presence of rat S9 fraction; format: toxicity, organism-based; settings: salmonella enterica subsp. enterica serovar typhimurium
[18] = Volume of distribution at steady state in rat at 2 mg/kg, iv and 10 mg/kg, po; format: ADME, organism-based; settings: in vivo, read-out: Vdss
[19] = tested on: Salmonella typhimurium; assay: Mutagenicity against Salmonella typhimurium TA98 by mini-AMES test in presence of rat S9 fraction; format: toxicity, organism-based; settings: salmonella enterica subsp. enterica serovar typhimurium
[20] = Plasma protein binding in rat; format: ADME, cell-free; settings: read-out: PPB (converted)
[21] = target: Cytochrome P450 2C9 (Homo sapiens, UniProt P11712); assay: Inhibition of CYP2C9 (unknown origin); format: ADME
Cytochrome P450 2C9, sequence (P11712 whole entry): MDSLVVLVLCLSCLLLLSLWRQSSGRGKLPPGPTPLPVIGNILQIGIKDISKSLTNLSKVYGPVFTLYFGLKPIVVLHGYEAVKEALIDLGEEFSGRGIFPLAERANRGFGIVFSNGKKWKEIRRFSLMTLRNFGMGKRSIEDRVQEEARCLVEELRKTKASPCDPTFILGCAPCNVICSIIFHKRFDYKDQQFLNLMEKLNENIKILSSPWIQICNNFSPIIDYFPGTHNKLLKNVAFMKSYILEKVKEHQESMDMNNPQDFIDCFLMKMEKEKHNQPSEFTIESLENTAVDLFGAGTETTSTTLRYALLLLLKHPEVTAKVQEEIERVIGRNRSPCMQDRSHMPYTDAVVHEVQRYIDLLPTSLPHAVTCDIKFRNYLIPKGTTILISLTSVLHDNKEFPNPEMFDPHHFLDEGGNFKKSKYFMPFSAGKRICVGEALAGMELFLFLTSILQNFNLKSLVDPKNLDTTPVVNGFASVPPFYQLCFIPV

[22] = Intrinsic clearance in rat liver microsomes at 1 uM; format: ADME, Microsome; settings: read-out: CLH
[23] = target: Cytochrome P450 2D6 (Homo sapiens, UniProt P10635); assay: Inhibition of CYP2D6 (unknown origin); format: ADME
Cytochrome P450 2D6, sequence (P10635 whole entry): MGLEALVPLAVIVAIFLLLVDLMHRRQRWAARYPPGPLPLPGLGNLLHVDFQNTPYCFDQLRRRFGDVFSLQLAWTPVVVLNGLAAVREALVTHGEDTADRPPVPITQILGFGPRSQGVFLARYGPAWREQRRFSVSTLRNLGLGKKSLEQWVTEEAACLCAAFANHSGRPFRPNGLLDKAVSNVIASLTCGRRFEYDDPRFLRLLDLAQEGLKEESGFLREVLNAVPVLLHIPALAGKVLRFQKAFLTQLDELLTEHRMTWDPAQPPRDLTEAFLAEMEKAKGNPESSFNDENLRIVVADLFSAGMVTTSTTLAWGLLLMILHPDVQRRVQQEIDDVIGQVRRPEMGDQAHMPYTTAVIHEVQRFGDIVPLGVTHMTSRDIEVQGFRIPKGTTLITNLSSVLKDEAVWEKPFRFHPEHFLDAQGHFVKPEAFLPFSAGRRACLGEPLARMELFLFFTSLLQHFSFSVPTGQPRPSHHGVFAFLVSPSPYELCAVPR

[24] = Ratio of drug uptake in brain to plasma in rat at 10 to 75 mg/kg, po after 30 mins; format: ADME, organism-based; parameters: dose 10-75 mg/kg, route oral; settings: read-out: BPR
[25] = Cmax in rat at 2 mg/kg, iv and 10 mg/kg, po; format: ADME, organism-based; settings: in vivo
[26] = Total plasma clearance in rat at 2 mg/kg, iv and 10 mg/kg, po; format: ADME, organism-based

IC50 [1]: 0.621 µM
SMILES: CCCS(=O)(=O)N1CCN(C2(CNC(=O)c3c(F)cccc3F)C[C@H]3C[C@H]3C2)CC1 (mixture of isomers)

remaining at 1 h, 10 µM [2]: 2%
IC50 [3]: > 75 µM
SMILES: CCCS(=O)(=O)N1CCN(C2(CNC(=O)c3ccccc3OC(F)(F)F)CCCCC2)CC1

IC50 [1]: 0.523 µM
IC50 [3]: > 75 µM
SMILES: CCCS(=O)(=O)N1CCN(C2(CNC(=O)c3cccc(C(F)(F)F)c3)CCCCC2)CC1

remaining at 1 h, 10 µM [2]: 5%
SMILES: CCCS(=O)(=O)N1CCN(C2(CNC(=O)c3ccccc3C(F)(F)F)CCCCC2)CC1

remaining at 1 h, 10 µM [2]: 4%
IC50 [1]: 0.0171 µM
IC50 [3]: > 75 µM
SMILES: CCCS(=O)(=O)N1CCN(C2(CNC(=O)c3ccc(OC)cc3F)CCCCC2)CC1

remaining at 1 h, 10 µM [2]: 11%
IC50 [3]: > 75 µM
SMILES: CCCS(=O)(=O)N1CCN(C2(CNC(=O)c3ccc(OC(F)(F)F)cc3)CCCCC2)CC1

remaining at 1 h, 10 µM [2]: 4%
IC50 [1]: 0.175 µM
IC50 [3]: > 75 µM
SMILES: CCCS(=O)(=O)N1CCN(C2(CNC(=O)c3ccc(Cl)cc3)CCCCC2)CC1

remaining at 1 h, 10 µM [2]: 2%
IC50 [3]: > 75 µM
SMILES: CCCS(=O)(=O)N1CCN(C2(CNC(=O)c3ccc(F)cc3C)CCCCC2)CC1

remaining at 1 h, 10 µM [2]: 40%
SMILES: CCCS(=O)(=O)N1CCN(C2(CNC(=O)c3c(N)cccc3Cl)CCN(C)CC2)CC1

remaining at 1 h, 10 µM [2]: 11%
IC50 [1]: 0.0227 µM
IC50 [3]: > 75 µM
SMILES: CCCS(=O)(=O)N1CCN(C2(CNC(=O)c3ccc(Cl)cc3Cl)CCCCC2)CC1

remaining at 1 h, 10 µM [2]: 10%
IC50 [1]: 0.0044 µM
IC50 [3]: > 75 µM
SMILES: CCCS(=O)(=O)N1CCN(C2(CNC(=O)c3c(OC)cc(C(F)(F)F)cc3C(F)(F)F)CCCCC2)CC1

remaining at 1 h, 10 µM [2]: 16%
IC50 [3]: > 75 µM
SMILES: CCCS(=O)(=O)N1CCN(C2(CNC(=O)c3c(F)cccc3F)CCCCC2)CC1

remaining at 1 h, 10 µM [2]: 3%
IC50 [1]: 0.0128 µM
IC50 [3]: > 75 µM
SMILES: CCCS(=O)(=O)N1CCN(C2(CNC(=O)c3c(Cl)cccc3Cl)CCCCC2)CC1

remaining at 1 h, 10 µM [2]: 1%
IC50 [1]: 0.0061 µM
SMILES: CCCS(=O)(=O)N1CCN(C2(CNC(=O)c3c(OC)cc(F)cc3SC)CCCCC2)CC1

remaining at 1 h, 10 µM [2]: 100%
IC50 [1]: 0.5 µM
SMILES: CCCS(=O)(=O)N1CCN(C2(CNC(=O)c3ccc(Cl)cc3Cl)CCOCC2)CC1

IC50 [1]: 0.0063 µM
SMILES: CCCS(=O)(=O)N1CCN(C2(CNC(=O)c3c(N)cccc3Cl)CCCCCC2)CC1

remaining at 1 h, 10 µM [2]: 1%
IC50 [1]: 0.0779 µM
IC50 [3]: > 75 µM
SMILES: CCCS(=O)(=O)N1CCN(C2(CNC(=O)c3cccc(C(F)(F)F)c3Cl)CCCCC2)CC1

remaining at 1 h, 10 µM [2]: 5%
IC50 [3]: > 75 µM
SMILES: CCCS(=O)(=O)N1CCN(C2(CNC(=O)c3ccc(Cl)c(Cl)c3)CCCCC2)CC1

microsomal CLint at 1 µM [4]: 13 µL/min/mg
Tmax [5]: 1.5 h
half-life [7]: 2.9 h
bioavailability [8]: 25.7%
AUC(0-inf) [10]: 2000 ng·h/mL
IC50 [12]: > 10 µM
Drug uptake [14]: Dose-dependent effect
fraction unbound [15]: 0.13
IC50 [16]: > 10 µM
remaining at 1 h, 10 µM [2]: 64%
Vd [18]: 3.26 L/kg
fraction unbound [20]: 0.16
IC50 [21]: > 10 µM
microsomal CLint at 1 µM [22]: 5.5 µL/min/mg
IC50 [23]: > 10 µM
Kp at 0.5 h [24]: 0.13
Cmax [25]: 486 ng/mL
clearance [26]: 22 mL/min/kg
SMILES: CCCS(=O)(=O)N1CCN(C2(CNC(=O)c3c(F)cccc3F)CCC(F)(F)CC2)CC1
Activity [6]: Non-toxic
Activity [9]: Non-toxic
Activity [11]: Dose-dependent effect
Activity [13]: Active
Activity [17]: Non-toxic
Activity [19]: Non-toxic

SMILES: CCCS(=O)(=O)N1CCN(C2(CNC(=O)c3c(N)cccc3Cl)CCCCC2)CC1
remaining at 1 h, 10 µM [2]: 29%
IC50 [1]: 0.0151 µM
IC50 [3]: > 75 µM
